Measurements as given in patent US20090312407A1, “Synthetic Flavonoids and Pharmaceutical Compositions and Therapeutic Methods of Treatment of Cancer and other Pathologies” (priority 2007, published 2009).
“And” between values parts separate entries of the source, which are not always exact repeats. Equal entries are not always repeated. “Also recorded” adds a separate entry of the source. Where two headings read alike, the source gives them in different places.

Experiments:
Assay type in all cases: cell-based
[1] = tested on: PC-3 cells; assay: Cytotoxicity on PC-3 cells; settings: for inhibitory activity / growth inhibition compared to AZT: PC-3 cells, same conditions as AZT
Source text: (§1) The purified and identified analogs were subjected to in vitro biological testing.

[2] = tested on: H-9 cells; assay: Cytotoxicity on H-9 cells; settings: for Cells (×10^4) Mean / Cells (×10^4): Table 3, 12-05 to 12-09/2005; for % Inhibition / inhibition at 1 µg/mL / inhibition at 5 µg/mL / inhibition at 10 µg/mL / inhibition at 50 µg/mL: vs 2% DMSO, Table 3; for inhibitory activity / growth inhibition compared to AZT: H-9 cells, same conditions as AZT; for inhibition at 1 µg/mL / inhibition at 5 µg/mL / inhibition at 10 µg/mL / inhibition at 50 µg/mL: Homo sapiens; for inhibition at 1 µg/mL: H9, 1 μg/ml; for inhibition at 5 µg/mL: H9, 5 μg/ml; for inhibition at 10 µg/mL: H9, 10 μg/ml; for inhibition at 50 µg/mL: H9, 50 μg/ml
Source text: as §1
These three congeners were further evaluated in H9 and PC3 cells. AZT was employed as a positive control in all of these experiments.

[3] = tested on: MCF-7 cells; assay: Cytotoxicity on MCF-7 cells; settings: for % Inhibition / inhibition at 1 µg/mL / inhibition at 5 µg/mL / inhibition at 10 µg/mL / inhibition at 50 µg/mL: vs 2% DMSO, Table 6; for inhibition at 1 µg/mL / inhibition at 5 µg/mL / inhibition at 10 µg/mL / inhibition at 50 µg/mL: Homo sapiens; for inhibition at 1 µg/mL: MCF7, 1 μg/ml; for inhibition at 5 µg/mL: MCF7, 5 μg/ml; for inhibition at 10 µg/mL: MCF7, 10 μg/ml; for inhibition at 50 µg/mL: MCF7, 50 μg/ml; for inhibitory activity / growth inhibition compared to AZT: MCF-7 cells, same conditions as AZT; for cytotoxic activities on MCF-7 cells: different drug concentrations
[4] = single count, read-out: % Inhibition
[5] = 1 μg/ml, Table 6, 11-14 to 11-18/2005
[6] = 1 μg/ml, single count, Table 6, 11-14 to 11-18/2005
[7] = 5 μg/ml, Table 6, 11-14 to 11-18/2005
[8] = 5 μg/ml, single count, Table 6, 11-14 to 11-18/2005
[9] = 10 μg/ml, Table 6, 11-14 to 11-18/2005
[10] = 10 μg/ml, single count, Table 6, 11-14 to 11-18/2005
[11] = 50 μg/ml, Table 6, 11-14 to 11-18/2005
[12] = 50 μg/ml, single count, Table 6, 11-14 to 11-18/2005

COc1ccc(C=CC(=O)c2cc(Br)cc(Br)c2O)cc1OC (stereo in doubt) [CHBr 2M] was tested, and the “inhibitory activity / growth inhibition compared to AZT” value [1] was “much superior; also recorded: as good or somewhat better”, the “Cells (×10^4) Mean” value ([2]; 1 μg/ml) was 47.42 ×10^4 and the “% Inhibition” value ([2]; 1 μg/ml, single count) was 9.45% and 1.49% and 5.97%. For the same compound, the “Cells (×10^4)” value ([2]; 1 μg/ml, single count) was 45.5 ×10^4 and 49.5 ×10^4 and 47.3 ×10^4, the “Cells (×10^4) Mean” value ([2]; 5 μg/ml) was 25.33 ×10^4 and the “% Inhibition” value ([2]; 5 μg/ml, single count) was 50.75% and 48.76%. For the same compound, the “Cells (×10^4)” value ([2]; 5 μg/ml, single count) was 25.5 ×10^4 and 24.8 ×10^4 and 25.8 ×10^4, the “Cells (×10^4) Mean” value ([2]; 10 μg/ml) was 17.58 ×10^4 and the “% Inhibition” value ([2]; 10 μg/ml, single count) was 67.68%. For the same compound, the “Cells (×10^4)” value ([2]; 10 μg/ml, single count) was 18.3 ×10^4 and 16.3 ×10^4, the “Cells (×10^4) Mean” value ([2]; 50 μg/ml) was 11.58 ×10^4 and the “% Inhibition” value ([2]; 50 μg/ml, single count) was 77.11%. The “Cells (×10^4)” value ([2]; 50 μg/ml, single count) was 11.8 ×10^4 and 11.5 ×10^4, the “inhibitory activity / growth inhibition compared to AZT” value [2] was “much superior; also recorded: as good or somewhat better” and the inhibition at 1 µg/mL ([2]; read-out: % Inhibition Mean) was 5.64%. The inhibition at 5 µg/mL [2, 4] was 49.2%, the inhibition at 5 µg/mL ([2]; read-out: % Inhibition Mean) was 49.6% and the inhibition at 10 µg/mL [2, 4] was 63.7%. For the same compound, the inhibition at 10 µg/mL ([2]; read-out: % Inhibition Mean) was 65%, the inhibition at 50 µg/mL [2, 4] was 76.6% and the inhibition at 50 µg/mL ([2]; read-out: % Inhibition Mean) was 77%. The “Cells (×10^4) Mean” value [3, 5] was 49.08 ×10^4, the “% Inhibition” value ([3]; 1 μg/ml, single count) was 10.95% and 18.73% and the “Cells (×10^4)” value [3, 6] was 48.8 ×10^4 and 51.5 ×10^4 and 47.0 ×10^4. For the same compound, the “Cells (×10^4) Mean” value [3, 7] was 26.25 ×10^4, the “% Inhibition” value ([3]; 5 μg/ml, single count) was 56.34% and 54.18% and the “Cells (×10^4)” value [3, 8] was 27.0 ×10^4 and 25.3 ×10^4 and 26.5 ×10^4. For the same compound, the “Cells (×10^4) Mean” value [3, 9] was 7.92 ×10^4, the “% Inhibition” value ([3]; 10 μg/ml, single count) was 84.44% and 87.03% and the “Cells (×10^4)” value [3, 10] was 7.3 ×10^4 and 9.0 ×10^4 and 7.5 ×10^4. For the same compound, the “Cells (×10^4) Mean” value [3, 11] was 0.75 ×10^4, the “% Inhibition” value ([3]; 50 μg/ml, single count) was 98.27% and 99.14% and the “Cells (×10^4)” value [3, 12] was 0.8 ×10^4 and 1.0 ×10^4 and 0.5 ×10^4. The inhibition at 1 µg/mL [3, 4] was 15.7%, the inhibition at 1 µg/mL ([3]; read-out: % Inhibition Mean) was 15.1% and the inhibition at 5 µg/mL [3, 4] was 53.3%. It also gave an inhibition at 5 µg/mL ([3]; read-out: % Inhibition Mean) of 54.6%, an inhibition at 10 µg/mL [3, 4] of 87.5% and an inhibition at 10 µg/mL ([3]; read-out: % Inhibition Mean) of 86.3%. For the same compound, the inhibition at 50 µg/mL [3, 4] was 98.7%, the inhibition at 50 µg/mL ([3]; read-out: % Inhibition Mean) was 98.7% and the “inhibitory activity / growth inhibition compared to AZT” value [3] was “much superior; also recorded: as good or somewhat better”. The “cytotoxic activities on MCF-7 cells” value [3] was “good cytotoxic activities”.

For COc1ccc(C=CC(=O)c2cc(Cl)cc(Cl)c2O)cc1OC (stereo in doubt) [CHCl 2M], the “inhibitory activity / growth inhibition compared to AZT” value ([1]; listed as CHCI2M) was “much superior; also recorded: as good or somewhat better”, the “Cells (×10^4) Mean” value ([2]; 1 μg/ml) was 42.25 ×10^4 and the “% Inhibition” value ([2]; 1 μg/ml, single count) was 15.42%. The “Cells (×10^4)” value ([2]; 1 μg/ml, single count) was 42.0 ×10^4 and 42.3 ×10^4 and 42.5 ×10^4, the “Cells (×10^4) Mean” value ([2]; 5 μg/ml) was 24.00 ×10^4 and the “% Inhibition” value ([2]; 5 μg/ml, single count) was 52.74% and 51.74%. The “Cells (×10^4)” value ([2]; 5 μg/ml, single count) was 24.0 ×10^4 and 23.8 ×10^4 and 24.3 ×10^4, the “Cells (×10^4) Mean” value ([2]; 10 μg/ml) was 12.92 ×10^4 and the “% Inhibition” value ([2]; 10 μg/ml, single count) was 77.11% and 71.64%. For the same compound, the “Cells (×10^4)” value ([2]; 10 μg/ml, single count) was 13.0 ×10^4 and 11.5 ×10^4 and 14.3 ×10^4, the “Cells (×10^4) Mean” value ([2]; 50 μg/ml) was 4.50 ×10^4 and the “% Inhibition” value ([2]; 50 μg/ml, single count) was 90.05%. For the same compound, the “Cells (×10^4)” value ([2]; 50 μg/ml, single count) was 4.0 ×10^4 and 4.5 ×10^4 and 5.0 ×10^4, the “inhibitory activity / growth inhibition compared to AZT” value ([2]; listed as CHCI2M) was “much superior; also recorded: as good or somewhat better” and the inhibition at 1 µg/mL [2, 4] was 16.4%. The inhibition at 1 µg/mL ([2]; read-out: % Inhibition Mean) was 15.9%, the inhibition at 5 µg/mL [2, 4] was 52.2% and the inhibition at 5 µg/mL ([2]; read-out: % Inhibition Mean) was 52.2%. For the same compound, the inhibition at 10 µg/mL [2, 4] was 74.1%, the inhibition at 10 µg/mL ([2]; read-out: % Inhibition Mean) was 74.3% and the inhibition at 50 µg/mL [2, 4] was 92%. The inhibition at 50 µg/mL ([2]; read-out: % Inhibition Mean) was 91%, the “Cells (×10^4) Mean” value [3, 5] was 49.42 ×10^4 and the “% Inhibition” value ([3]; 1 μg/ml, single count) was 16.14% and 13.54%. The “Cells (×10^4)” value [3, 6] was 49.8 ×10^4 and 48.5 ×10^4 and 50.0 ×10^4, the “Cells (×10^4) Mean” value [3, 7] was 32.33 ×10^4 and the “% Inhibition” value ([3]; 5 μg/ml, single count) was 45.53% and 42.07%. The “Cells (×10^4)” value [3, 8] was 32.0 ×10^4 and 31.5 ×10^4 and 33.5 ×10^4, the “Cells (×10^4) Mean” value [3, 9] was 10.42 ×10^4 and the “% Inhibition” value ([3]; 10 μg/ml, single count) was 81.41% and 81.84%. For the same compound, the “Cells (×10^4)” value [3, 10] was 10.0 ×10^4 and 10.8 ×10^4 and 10.5 ×10^4, the “Cells (×10^4) Mean” value [3, 11] was 0.75 ×10^4 and the “% Inhibition” value ([3]; 50 μg/ml, single count) was 99.14%. For the same compound, the “Cells (×10^4)” value [3, 12] was 1.0 ×10^4 and 0.5 ×10^4 and 0.8 ×10^4, the inhibition at 1 µg/mL [3, 4] was 14% and the inhibition at 1 µg/mL ([3]; read-out: % Inhibition Mean) was 14.6%. It also gave an inhibition at 5 µg/mL [3, 4] of 44.7%, an inhibition at 5 µg/mL ([3]; read-out: % Inhibition Mean) of 44.1% and an inhibition at 10 µg/mL [3, 4] of 82.7%. For the same compound, the inhibition at 10 µg/mL ([3]; read-out: % Inhibition Mean) was 82%, the inhibition at 50 µg/mL [3, 4] was 98.3% and the inhibition at 50 µg/mL ([3]; read-out: % Inhibition Mean) was 98.7%. For the same compound, the “inhibitory activity / growth inhibition compared to AZT” value ([3]; listed as CHCI2M) was “much superior; also recorded: as good or somewhat better” and the “cytotoxic activities on MCF-7 cells” value [3] was “good cytotoxic activities”.

In the case of Cc1cn([C@H]2C[C@H](N=[N+]=[N-])[C@@H](CO)O2)c(=O)[nH]c1=O [AZT, reference compound], the “Cells (×10^4) Mean” value ([1]; 5 μg/ml, Table 7, 11-11 to 11-17/2005) is reported as 71.33 ×10^4, the “% Inhibition” value ([1]; 10 μg/ml, single count, vs 2% DMSO, Table 7) is reported as 38.73% and the “Cells (×10^4) Mean” value ([3]; 1 μg/ml, Table 12, 9-12 to 9-16/2005) is reported as 45.25 ×10^4. The “Cells (×10^4)” value ([3]; 1 μg/ml, single count, Table 12, 9-12 to 9-16/2005) was 46.0 ×10^4 and 45.3 ×10^4 and 44.5 ×10^4, the “Cells (×10^4) Mean” value ([3]; 5 μg/ml, Table 12, 9-12 to 9-16/2005) was 28.58 ×10^4 and the “Cells (×10^4)” value ([3]; 5 μg/ml, single count, Table 12, 9-12 to 9-16/2005) was 27.8 ×10^4 and 28.0 ×10^4. The “Cells (×10^4) Mean” value ([3]; 10 μg/ml, Table 12, 9-12 to 9-16/2005) was 20.17 ×10^4 and the “Cells (×10^4)” value ([3]; 10 μg/ml, single count, Table 12, 9-12 to 9-16/2005) was 17.5 ×10^4 and 21.5 ×10^4.

In the case of COc1cc(C=CC(=O)c2cc(Cl)cc(Cl)c2O)cc(OC)c1OC [CHCl 3M], the “Cells (×10^4)” value ([3]; 5 μg/ml, single count, Table 17, 12-12 to 12-16/2005) is reported as 53.0 ×10^4.
